Experiments:
Type in all cases: functional
NCI-H460 = assay: Growth inhibition of human NCI-H460 cells by sulforhodamine B assay
HOP-92 = assay: Growth inhibition of human HOP92 cells by sulforhodamine B assay
CCRF-CEM = assay: Growth inhibition of human CCRF-CEM cells by sulforhodamine B assay
OVCAR-3 = assay: Growth inhibition of human OVCAR3 cells assessed as cell growth at 10^-8 M by sulforhodamine B assay; conditions: read-out: Activity
SNB-19 = assay: Growth inhibition of human SNB19 cells assessed as cell growth at 10^-8 M by sulforhodamine B assay; conditions: read-out: Activity
KM12 = assay: Growth inhibition of human KM12 cells assessed as cell growth at 10^-8 M by sulforhodamine B assay; conditions: read-out: Activity
[1] = Growth inhibition of human HCC2998 cells assessed as cell growth at 10^-8 M by sulforhodamine B assay; conditions: HCC 2998, read-out: Activity
HCT-116 = assay: Growth inhibition of human HCT116 cells assessed as cell growth at 10^-8 M by sulforhodamine B assay; conditions: read-out: Activity
NCI-H23 = assay: Growth inhibition of human NCI-H23 cells assessed as cell growth at 10^-8 M by sulforhodamine B assay; conditions: read-out: Activity
SR = assay: Growth inhibition of human SR cells assessed as cell growth at 10^-8 M by sulforhodamine B assay; conditions: read-out: Activity
K562 = assay: Growth inhibition of human K562 cells assessed as cell growth at 10^-8 M by sulforhodamine B assay; conditions: read-out: Activity
786-0 [2] = assay: Growth inhibition of human 786-0 cells by sulforhodamine B assay
IGROV-1 = assay: Growth inhibition of human IGROV1 cells by sulforhodamine B assay
UACC-257 = assay: Growth inhibition of human UACC257 cells by sulforhodamine B assay
M14 [3] = assay: Growth inhibition of human M14 cells by sulforhodamine B assay
SNB-75 = assay: Growth inhibition of human SNB75 cells by sulforhodamine B assay
CAKI-1 = assay: Growth inhibition of human CAKI-1 cells assessed as cell growth at 10^-4 M by sulforhodamine B assay; conditions: read-out: Activity
SK-OV-3 [4] = assay: Growth inhibition of human SKOV3 cells assessed as cell growth at 10^-4 M by sulforhodamine B assay; conditions: read-out: Activity
SK-MEL-2 = assay: Growth inhibition of human SK-MEL-2 cells assessed as cell growth at 10^-4 M by sulforhodamine B assay; conditions: read-out: Activity
SF-295 = assay: Growth inhibition of human SF295 cells assessed as cell growth at 10^-4 M by sulforhodamine B assay; conditions: read-out: Activity
RPMI-8226 = assay: Growth inhibition of human RPMI8226 cells assessed as cell growth at 10^-4 M by sulforhodamine B assay; conditions: read-out: Activity
HL-60(TB) [5] = assay: Growth inhibition of human HL-60(TB) cells assessed as cell growth at 10^-4 M by sulforhodamine B assay; conditions: read-out: Activity
UO-31 = assay: Growth inhibition of human UO31 cells assessed as cell growth at 10^-6 M by sulforhodamine B assay; conditions: read-out: Activity
A498 [6] = assay: Growth inhibition of human A498 cells assessed as cell growth at 10^-6 M by sulforhodamine B assay; conditions: read-out: Activity
SK-MEL-5 = assay: Growth inhibition of human SK-MEL-5 cells assessed as cell growth at 10^-6 M by sulforhodamine B assay; conditions: read-out: Activity
MDA-MB-435 = assay: Growth inhibition of human MDA-MB-435 cells assessed as cell growth at 10^-6 M by sulforhodamine B assay; conditions: read-out: Activity
SF-539 = assay: Growth inhibition of human SF539 cells assessed as cell growth at 10^-6 M by sulforhodamine B assay; conditions: read-out: Activity
SF-268 = assay: Growth inhibition of human SF268 cells assessed as cell growth at 10^-6 M by sulforhodamine B assay; conditions: read-out: Activity
HOP-62 = assay: Growth inhibition of human HOP62 cells assessed as cell growth at 10^-6 M by sulforhodamine B assay; conditions: read-out: Activity
HL-60(TB) [7] = assay: Growth inhibition of human HL-60(TB) cells assessed as cell growth at 10^-6 M by sulforhodamine B assay; conditions: read-out: Activity
MDA-MB-231 = assay: Growth inhibition of human MDA-MB-231 cells assessed as cell growth at 10^-7 M by sulforhodamine B assay; conditions: read-out: Activity
SK-MEL-28 = assay: Growth inhibition of human SK-MEL-28 cells assessed as cell growth at 10^-7 M by sulforhodamine B assay; conditions: read-out: Activity
M14 [8] = assay: Growth inhibition of human M14 cells assessed as cell growth at 10^-7 M by sulforhodamine B assay; conditions: read-out: Activity
A549 = assay: Growth inhibition of human A549/ATCC cells assessed as cell growth at 10^-7 M by sulforhodamine B assay; conditions: read-out: Activity
DU-145 = assay: Growth inhibition of human DU145 cells assessed as cell growth at 10^-8 M by sulforhodamine B assay; conditions: read-out: Activity
TK-10 = assay: Growth inhibition of human TK10 cells assessed as cell growth at 10^-8 M by sulforhodamine B assay; conditions: read-out: Activity
786-0 [9] = assay: Growth inhibition of human 786-0 cells assessed as cell growth at 10^-8 M by sulforhodamine B assay; conditions: read-out: Activity
A498 [10] = assay: Growth inhibition of human A498 cells assessed as cell growth at 10^-8 M by sulforhodamine B assay; conditions: read-out: Activity
SK-OV-3 [11] = assay: Growth inhibition of human SKOV3 cells assessed as cell growth at 10^-8 M by sulforhodamine B assay; conditions: read-out: Activity
OVCAR-4 = assay: Growth inhibition of human OVCAR4 cells assessed as cell growth at 10^-8 M by sulforhodamine B assay; conditions: read-out: Activity
[12] = read-out: LC50 (the source's name)
[13] = read-out: pLC50 (the source's name) (converted)

## CC(C)=CC(=O)O[C@@H]1CC(C)(C)C[C@H]2C3=CC[C@@H]4[C@@]5(C)CCC(=O)C(C)(C)[C@@H]5CC[C@@]4(C)[C@]3(C)CC[C@@]12C(=O)O
NCI-H460; read-out: GI50
  GI50: 2.21 µM
NCI-H460; read-out: LC50
  LC50: 85.5 µM
NCI-H460; read-out: TGI
  TGI: 14.6 µM
NCI-H460; read-out: pGI50 (converted)
  GI50: 2.19 µM
NCI-H460; read-out: pLC50 (converted)
  LC50: 85.1 µM
NCI-H460; read-out: pTGI (converted)
  TGI: 14.5 µM
HOP-92; read-out: GI50
  GI50: 1.7 µM
HOP-92; [12]
  CC50: > 100 µM
HOP-92; read-out: TGI
  TGI: 7.02 µM
HOP-92; read-out: pGI50 (converted)
  GI50: 1.7 µM
HOP-92; [13]
  CC50: > 100 µM
HOP-92; read-out: pTGI (converted)
  TGI: 7.08 µM
CCRF-CEM; read-out: GI50
  GI50: 2.14 µM
CCRF-CEM; [12]
  CC50: > 100 µM
CCRF-CEM; read-out: TGI
  TGI: 22.1 µM
CCRF-CEM; read-out: pGI50 (converted)
  GI50: 2.14 µM
CCRF-CEM; [13]
  CC50: > 100 µM
CCRF-CEM; read-out: pTGI (converted)
  TGI: 22.4 µM
OVCAR-3
  growth at 0.01 µM: 104%
SNB-19
  growth at 0.01 µM: 98%
KM12
  growth at 0.01 µM: 101%
[1]
  growth at 0.01 µM: 97%
HCT-116
  growth at 0.01 µM: 98%
NCI-H23
  growth at 0.01 µM: 94%
SR
  growth at 0.01 µM: 109%
K562
  growth at 0.01 µM: 116%
786-0 [2]; read-out: GI50
  GI50: 3.69 µM
786-0 [2]; [12]
  CC50: > 100 µM
786-0 [2]; read-out: TGI
  TGI: 20.2 µM
786-0 [2]; read-out: pGI50 (converted)
  GI50: 3.72 µM
786-0 [2]; [13]
  CC50: > 100 µM
786-0 [2]; read-out: pTGI (converted)
  TGI: 20 µM
IGROV-1; read-out: GI50
  GI50: 5.36 µM
IGROV-1; [12]
  CC50: > 100 µM
IGROV-1; read-out: TGI
  TGI: 38.4 µM
IGROV-1; read-out: pGI50 (converted)
  GI50: 5.37 µM
IGROV-1; [13]
  CC50: > 100 µM
IGROV-1; read-out: pTGI (converted)
  TGI: 38 µM
UACC-257; read-out: GI50
  GI50: 4.98 µM
UACC-257; [12]
  CC50: > 100 µM
UACC-257; read-out: TGI
  TGI: 50.6 µM
UACC-257; read-out: pGI50 (converted)
  GI50: 5.01 µM
UACC-257; [13]
  CC50: > 100 µM
UACC-257; read-out: pTGI (converted)
  TGI: 50.1 µM
M14 [3]; read-out: GI50
  GI50: 6.52 µM
M14 [3]; [12]
  CC50: 76.6 µM
M14 [3]; read-out: TGI
  TGI: 25.2 µM
M14 [3]; read-out: pGI50 (converted)
  GI50: 6.46 µM
M14 [3]; [13]
  CC50: 75.9 µM
M14 [3]; read-out: pTGI (converted)
  TGI: 25.1 µM
SNB-75; read-out: GI50
  GI50: 7.71 µM
SNB-75; [12]
  CC50: > 100 µM
SNB-75; read-out: TGI
  TGI: 39.2 µM
SNB-75; read-out: pGI50 (converted)
  GI50: 7.76 µM
SNB-75; [13]
  CC50: > 100 µM
SNB-75; read-out: pTGI (converted)
  TGI: 38.9 µM
CAKI-1
  growth at 100 µM: -2%
SK-OV-3 [4]
  growth at 100 µM: 15%
SK-MEL-2
  growth at 100 µM: -69%
SF-295
  growth at 100 µM: -59%
RPMI-8226
  growth at 100 µM: -19%
HL-60(TB) [5]
  growth at 100 µM: -38%
UO-31
  growth at 1 µM: 82%
A498 [6]
  growth at 1 µM: 61%
SK-MEL-5
  growth at 1 µM: 60%
MDA-MB-435
  growth at 1 µM: 92%
SF-539
  growth at 1 µM: 90%
SF-268
  growth at 1 µM: 93%
HOP-62
  growth at 1 µM: 100%
HL-60(TB) [7]
  growth at 1 µM: 94%
MDA-MB-231
  growth at 0.1 µM: 93%
SK-MEL-28
  growth at 0.1 µM: 99%
M14 [8]
  growth at 0.1 µM: 94%
A549
  growth at 0.1 µM: 88%
DU-145
  growth at 0.01 µM: 105%
TK-10
  growth at 0.01 µM: 96%
786-0 [9]
  growth at 0.01 µM: 99%
A498 [10]
  growth at 0.01 µM: 86%
SK-OV-3 [11]
  growth at 0.01 µM: 106%
OVCAR-4
  growth at 0.01 µM: 99%

Reference: ChEMBL document CHEMBL2413072, “Synthesis and in vitro anticancer studies of novel C-2 arylidene congeners of lantadenes” (2013)
